Experiments:
[1] = target: T1, GAL4-PPARα LBD (Homo sapiens, UniProt Q07869); test: GAL4-PPARα LBD luciferase reporter assay in HEK293 cells; assay type: cell-based; conditions: for ligand-induced activation of PPARα (in words): 100 μM fatty acids, Fig. 1B
T1 construct: chimeric receptors containing the LBD of various NRs; expressed in transfected cells; host or cells: HEK293
T1 sequence (Q07869 239-466 limits assumed): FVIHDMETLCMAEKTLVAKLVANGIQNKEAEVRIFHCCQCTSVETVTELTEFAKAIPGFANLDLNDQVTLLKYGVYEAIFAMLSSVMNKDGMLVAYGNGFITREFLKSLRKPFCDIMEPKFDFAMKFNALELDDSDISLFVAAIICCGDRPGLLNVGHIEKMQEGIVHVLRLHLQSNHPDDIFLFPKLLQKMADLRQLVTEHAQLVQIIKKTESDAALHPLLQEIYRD

[2] = target: T2, GAL4-PPARδ LBD (Homo sapiens, UniProt Q03181); test: GAL4-PPARδ LBD luciferase reporter assay in HEK293 cells; assay type: cell-based; conditions: for PPARδ activation (in words): 100 μM fatty acids, Fig. 1B
T2 construct: chimeric receptors containing the LBD of various NRs; expressed in transfected cells; host or cells: HEK293
T2 sequence (Q03181 211-439 limits assumed): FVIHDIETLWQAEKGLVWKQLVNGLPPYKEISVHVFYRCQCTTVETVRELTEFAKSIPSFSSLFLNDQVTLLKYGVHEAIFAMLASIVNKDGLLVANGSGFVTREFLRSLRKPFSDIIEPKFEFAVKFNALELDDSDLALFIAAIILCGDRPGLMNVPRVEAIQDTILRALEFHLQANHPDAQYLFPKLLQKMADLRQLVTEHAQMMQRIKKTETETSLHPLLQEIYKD

[3] = tested on: human intestinal organoids; test: PPARδ target gene mRNA expression in human intestinal organoids (RT-qPCR); assay type: cell-based; conditions: 1 μM GW1516 or 30 μM fatty acids for 24 h
[4] = target: T3, VP16-PPARδ / GAL4-SRC-1 (Homo sapiens, UniProt Q03181); test: mammalian two-hybrid assay, VP16-PPARδ and coactivator GAL4-SRC-1; assay type: cell-based; conditions: 30 μM fatty acids, 100 nM GW1516, HEK293 cells, Fig. 3A
T3 construct: expressed in transfected cells; host or cells: HEK293
T3 sequence (Q03181 1-441): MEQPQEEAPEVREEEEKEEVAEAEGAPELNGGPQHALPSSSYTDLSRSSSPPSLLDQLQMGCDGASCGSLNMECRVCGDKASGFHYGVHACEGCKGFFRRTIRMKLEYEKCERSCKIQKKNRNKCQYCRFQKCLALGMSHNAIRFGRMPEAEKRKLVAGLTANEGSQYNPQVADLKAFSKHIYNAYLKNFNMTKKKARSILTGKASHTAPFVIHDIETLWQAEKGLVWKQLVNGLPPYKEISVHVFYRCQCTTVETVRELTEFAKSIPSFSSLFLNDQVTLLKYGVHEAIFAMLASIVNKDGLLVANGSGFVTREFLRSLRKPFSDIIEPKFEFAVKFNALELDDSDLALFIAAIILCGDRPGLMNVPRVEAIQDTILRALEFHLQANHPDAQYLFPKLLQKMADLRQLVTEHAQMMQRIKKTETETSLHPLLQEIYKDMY
T3 sequence (Q15788 595-771 partner limits assumed): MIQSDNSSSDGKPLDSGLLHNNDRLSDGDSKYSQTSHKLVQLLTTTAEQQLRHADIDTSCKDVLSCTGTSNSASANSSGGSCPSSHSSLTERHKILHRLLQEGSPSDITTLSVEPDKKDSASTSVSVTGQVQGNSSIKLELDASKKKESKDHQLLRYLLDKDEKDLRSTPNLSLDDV

[5] = target: T4, VP16-PPARα / GAL4-SRC-1 (Homo sapiens, UniProt Q07869); test: mammalian two-hybrid assay, VP16-PPARα and coactivator GAL4-SRC-1; assay type: cell-based; conditions: 30 μM fatty acids, 1 μM GW7647, HEK293 cells, Fig. 3B
T4 construct: expressed in transfected cells; host or cells: HEK293
T4 sequence (Q07869 1-468): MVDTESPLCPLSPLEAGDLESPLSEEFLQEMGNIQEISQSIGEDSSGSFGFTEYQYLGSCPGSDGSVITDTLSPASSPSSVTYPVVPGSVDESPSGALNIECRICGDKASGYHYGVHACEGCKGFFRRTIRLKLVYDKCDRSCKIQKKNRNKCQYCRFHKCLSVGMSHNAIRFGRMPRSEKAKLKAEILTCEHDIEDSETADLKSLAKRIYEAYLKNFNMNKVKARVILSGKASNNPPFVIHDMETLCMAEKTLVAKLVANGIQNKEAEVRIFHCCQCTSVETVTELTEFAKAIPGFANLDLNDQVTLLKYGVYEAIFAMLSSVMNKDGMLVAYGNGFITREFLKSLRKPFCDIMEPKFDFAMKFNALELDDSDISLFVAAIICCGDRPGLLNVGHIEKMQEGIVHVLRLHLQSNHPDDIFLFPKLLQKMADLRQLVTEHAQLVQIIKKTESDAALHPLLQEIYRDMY
T4 sequence (Q15788 595-771 partner limits assumed): T3 sequence (Q15788 595-771 partner limits assumed)

[6] = target: T5, VP16-PPARα / GAL4-NCoR (Homo sapiens, UniProt Q07869); test: mammalian two-hybrid assay, VP16-PPARα and corepressor NCoR; assay type: cell-based; conditions: 30 μM fatty acids, HEK293 cells, Fig. 3D
T5 construct: expressed in transfected cells; host or cells: HEK293
T5 sequence (Q07869 1-468): T4 sequence (Q07869 1-468)

[7] = target: T6, recombinant human PPARδ LBD protein (Homo sapiens, UniProt Q03181); test: [14C] DHA competitive ligand-binding assay; conditions: 100 nM [14C] DHA, 1 μM nonlabeled fatty acids, overnight at 4 °C
T6 construct: Human PPARδ LBD (140–442) construct was cloned into a pGEX-4T1 vector; GST (N, cleaved yes); made in house; host or cells: Escherichia coli BL21 (DE3) pLys
T6 sequence (Q03181 140-441 limits assumed): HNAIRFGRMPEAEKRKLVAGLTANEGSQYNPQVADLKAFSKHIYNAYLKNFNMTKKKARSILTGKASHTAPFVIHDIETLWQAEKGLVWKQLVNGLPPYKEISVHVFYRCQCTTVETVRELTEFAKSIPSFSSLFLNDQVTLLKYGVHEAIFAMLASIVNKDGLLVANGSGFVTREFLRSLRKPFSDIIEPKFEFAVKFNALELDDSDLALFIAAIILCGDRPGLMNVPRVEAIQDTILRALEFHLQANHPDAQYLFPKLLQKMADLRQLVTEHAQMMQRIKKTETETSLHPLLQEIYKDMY
Experimental: To identify the mechanism underlying the activation of PPARδ by GLA-derived fatty acids, we performed a [^14C] DHA competitive ligand-binding assay describing the displacement of ligands from receptors with recombinant human PPARδ LBD protein produced by a bacterial expression system (Figs. 4, A and B and S2). PPARδ LBD or glutathione-S-transferase (GST) recombinant protein was incubated with both [^14C] […] A competitive inhibition of [^14C] DHA binding was analyzed as a direct binding to PPARδ LBD (see Experimental procedures). […] DHA binding to PPARδ LBD competitively (Fig. 4C).
Human PPARδ LBD (140–442) construct was cloned into a pGEX-4T1 vector (GE Healthcare Life Sciences) at the restriction enzyme site of SmaI and XhoI. The protein was expressed in Eschericia coli BL21 (DE3) pLys cells (Novagen) as a C-terminal fusion to a GST tag with a thrombin cleavage site. A single colony was cultured in 2 ml of LB media supplemented with 20 μg/ml of ampicillin and 30 μg/ml of chloramphenicol at 37 °C and 200 rpm for 18 h. The preculture was then transferred to 1 l of LB media until the A600 reached 0.6 to 0.8. IPTG was added to produce a final concentration of 0.4 mM, and expression was continued at 24 °C and 150 rpm for 18 h. Cells were collected using centrifugation, and pellets were resuspended in lysis buffer comprising 50 mM Tris–HCl (pH 7.5), 150 mM NaCl, 5 mM DTT, 1 mM EDTA, and 10% glycerol before sonication was performed. The supernatant was then collected using centrifugation at 100,000g and 4 °C for 70 min, after which it was loaded onto GST Accept (nacalai tesque) and equilibrated using the lysis buffer. Subsequently, the column was washed using five column volumes of the lysis buffer and thrombin cleavage buffer comprising 20 mM Tri–HCl (pH 8.4), 150 mM NaCl, 2.5 mM CaCl2, and 1 mM DTT, respectively. The GST tag was removed via digestion using biotinylated thrombin (Merck) for 18 h at 4 °C. The biotinylated thrombin was removed using Dynabeads M-280 streptavidin (Veritas). The purity of the target proteins was verified using SDS-PAGE.
A ligand-binding assay was performed as described previously with minor modifications ([72]). Briefly, purified recombinant human PPARδ LBD protein was incubated with 100 nM ([…]) [^14C] DHA in GP buffer (137 mM NaCl, 8.1 mM Na2HPO4, 2.68 mM KCl, 1.47 mM KH2PO4, 1% sodium azide, and 0.1% gelatin) overnight at 4 °C with or without various competitors (1 μM), including DHA and GLA-derived fatty acids. Unbound ligands were removed by adsorption to 3% dextran-coated charcoal, and the supernatant was collected. The PPARδ-bound [^14C] DHA was measured using a scintillation counter (PerkinElmer).

[8] = target: T7, full-length PPARδ (Homo sapiens, UniProt Q03181); test: full-length PPARδ PPRE luciferase reporter assay in HEK293 cells; assay type: cell-based; conditions: Fig. 1C
T7 construct: expressed in transfected cells; host or cells: HEK293
T7 sequence (Q03181 1-441): T3 sequence (Q03181 1-441)
From the text: Luciferase activities were normalized to β-galactosidase activities.

[9] = target: T8, VP16-PPARδ / GAL4-NCoR (Homo sapiens, UniProt Q03181); test: mammalian two-hybrid assay, VP16-PPARδ and corepressor NCoR; assay type: cell-based; conditions: 30 μM fatty acids, HEK293 cells, Fig. 3C
T8 construct: expressed in transfected cells; host or cells: HEK293
T8 sequence (Q03181 1-441): T3 sequence (Q03181 1-441)

| SMILES | ligand-induced activation of PPARα (in words) [1] | PPARδ activation (in words) [2] | other results |
| --- | --- | --- | --- |
| CC/C=C\C/C=C\C/C=C\C/C=C\C/C=C\C/C=C\CCC(=O)O [DHA, docosahexaenoic acid, reference compound] | – | – | EC50 ([1]; GAL4-PPARα LBD, calculated from luciferase activity with Quest Graph EC50 Calculator): 9.32 µM; EC50 ([2]; GAL4-PPARδ LBD, calculated from luciferase activity with Quest Graph EC50 Calculator): 44.6 µM |
| Cc1cc(SCc2sc(-c3ccc(C(F)(F)F)cc3)nc2C)ccc1OCC(=O)O [GW1516, reference compound] | – | – | expression of PPARδ target genes (CPT1A, HMGCS2, PDK4, ACSL1) [3]: upregulated the mRNA expression of target genes |
| CCCCCC(O)CC/C=C\CCCCCCCC(=O)O (centres unmarked) [HYD] | little or no effect | effective | – |
| CCCCCC(O)CCC(O)CCCCCCCCC(=O)O (centres unmarked) [HYE] | little or no effect | effective | – |
| CCCCCC(=O)CC/C=C\CCCCCCCC(=O)O [KetoD] | little or no effect | effective | – |
| CC/C=C\CC(O)CC/C=C\CCCCCCCC(=O)O (centres unmarked) [αHYD] | little or no effect | effective | – |
| CC/C=C\CC(O)CCC(O)CCCCCCCCC(=O)O (centres unmarked) [αHYE] | little or no effect | – | – |
| CC/C=C\CC(=O)CC/C=C\CCCCCCCC(=O)O [αKetoD] | little or no effect | – | – |
| CCCCCC(O)CCC(O)CC/C=C\CCCCC(=O)O (stereo not drawn) [γHYE, 10,13-dihydroxy-cis-6-octadecenoic acid] | – | more robust PPARδ activation than their original compound, GLA | recruitment of coactivator SRC-1 to PPARδ [4]: induced coactivator-recruitment; recruitment of coactivator SRC-1 to PPARα [5]: induced coactivator-recruitment; interaction between PPARα and corepressor NCoR [6]: reduced the interaction; competitive displacement of [14C] DHA binding to PPARδ LBD [7]: displaced [^14C] DHA binding to PPARδ LBD competitively; transactivation of full-length PPARδ (in words) [8]: activated PPARδ potently; interaction between PPARδ and corepressor NCoR [9]: reduced the interaction |

— article PMC9636582 (The Journal of Biological Chemistry, 2022)
